Data taken from the supplement of paper PMC10883282.

How the values were obtained:
Experiment in all cases: relative viability vs DMSO control (72 h) (fraction); higher = more viable cells
[1] = test system: SW872
How it was run: (§1)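 Serially diluted compound, 2.5 µl from source plates spanning 10 mM to 0.0002 mM, was added 24 h after sarcoma cell lines were seeded in 384-well plates at densities targeting 80–90% confluence. Plates then sat 72 h at 37 °C, 5% CO2, with 0.1% DMSO vehicle and a 5 µM positive control. Relative viability came from ATPLite as percent growth, averaged over up to triplicate wells, and was rescaled with 1 as full and 0 as none.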

[2] = test system: A204
How it was run: as §1

[3] = test system: SYO-1
How it was run: as §1

[4] = test system: SK-ES-1
How it was run: as §1

[5] = test system: SW982
How it was run: as §1

[6] = test system: HS729
How it was run: as §1

[7] = test system: KHOS-240S
How it was run: as §1

[8] = test system: SW1353
How it was run: as §1

[9] = test system: G401
How it was run: as §1

[10] = test system: SW684
How it was run: as §1

[11] = test system: MES-SA
How it was run: as §1

[12] = test system: SK-LMS-1
How it was run: as §1

C1=N/C2=N/c3ccc(OCCN4CCCC4)c(c3)COC/C=C/COCc3cccc(c3)C(=C1)N2 [Pacritinib]
Conditions	relative viability
[1], 0.00017 µM	1.11
[1], 0.00051 µM	1.08
[1], 0.00152 µM	1.08
[1], 0.00457 µM	1.1
[1], 0.01372 µM	1.1
[1], 0.04115 µM	1.06
[1], 0.1235 µM	1.02
[1], 0.3704 µM	0.839
[1], 1.111 µM	0.541
[1], 3.333 µM	0.131
[1], 10 µM	0.0932
[2], 0.00017 µM	1.07
[2], 0.00051 µM	1.05
[2], 0.00152 µM	1.07
[2], 0.00457 µM	1.1
[2], 0.01372 µM	1.07
[2], 0.04115 µM	1.02
[2], 0.1235 µM	0.918
[2], 0.3704 µM	0.654
[2], 1.111 µM	0.398
[2], 3.333 µM	0.0367
[2], 10 µM	0.0523
[3], 0.00017 µM	1.01
[3], 0.00051 µM	1.01
[3], 0.00152 µM	0.997
[3], 0.00457 µM	0.985
[3], 0.01372 µM	1.01
[3], 0.04115 µM	0.952
[3], 0.1235 µM	0.932
[3], 0.3704 µM	0.748
[3], 1.111 µM	0.244
[3], 3.333 µM	0.0093
[3], 10 µM	0.00973
[4], 0.00017 µM	1.07
[4], 0.00051 µM	1.06
[4], 0.00152 µM	1.06
[4], 0.00457 µM	1.02
[4], 0.01372 µM	1.07
[4], 0.04115 µM	0.989
[4], 0.1235 µM	0.945
[4], 0.3704 µM	0.593
[4], 1.111 µM	0.222
[4], 3.333 µM	0.00983
[4], 10 µM	0.00643
[5], 0.00017 µM	1.04
[5], 0.00051 µM	1.08
[5], 0.00152 µM	1.12
[5], 0.00457 µM	1.09
[5], 0.01372 µM	1.09
[5], 0.04115 µM	1.11
[5], 0.1235 µM	0.923
[5], 0.3704 µM	0.573
[5], 1.111 µM	0.296
[5], 3.333 µM	0.157
[5], 10 µM	0.153
[6], 0.00017 µM	1.1
[6], 0.00051 µM	1.055
[6], 0.00152 µM	1.03
[6], 0.00457 µM	1
[6], 0.01372 µM	1.02
[6], 0.04115 µM	0.9592
[6], 0.1235 µM	0.947
[6], 0.3704 µM	0.928
[6], 1.111 µM	0.698
[6], 3.333 µM	0.576
[6], 10 µM	0.232
[7], 0.00017 µM	1.05
[7], 0.00051 µM	1.08
[7], 0.00152 µM	1.08
[7], 0.00457 µM	1.08
[7], 0.01372 µM	1.09
[7], 0.04115 µM	1.06
[7], 0.1235 µM	1.06
[7], 0.3704 µM	0.985
[7], 1.111 µM	0.5636
[7], 3.333 µM	0.0954
[7], 10 µM	0.108
[8], 0.00017 µM	1.06
[8], 0.00051 µM	1.091
[8], 0.00152 µM	1.08
[8], 0.00457 µM	1.03
[8], 0.01372 µM	1
[8], 0.04115 µM	0.981
[8], 0.1235 µM	0.966
[8], 0.3704 µM	0.882
[8], 1.111 µM	0.775
[8], 3.333 µM	0.178
[8], 10 µM	0.0164
[9], 0.00017 µM	1.05
[9], 0.00051 µM	1.09
[9], 0.00152 µM	1.02
[9], 0.00457 µM	1.06
[9], 0.01372 µM	1.03
[9], 0.04115 µM	1
[9], 0.1235 µM	0.966
[9], 0.3704 µM	0.868
[9], 1.111 µM	0.552
[9], 3.333 µM	0.044
[9], 10 µM	0.0119
[10], 0.00017 µM	1.14
[10], 0.00051 µM	1.17
[10], 0.00152 µM	1.15
[10], 0.00457 µM	1.19
[10], 0.01372 µM	1.15
[10], 0.04115 µM	1.11
[10], 0.1235 µM	0.977
[10], 0.3704 µM	0.781
[10], 1.111 µM	0.544
[10], 3.333 µM	0.189
[10], 10 µM	0.0544
[11], 0.00017 µM	0.966
[11], 0.00051 µM	0.9661
[11], 0.00152 µM	0.953
[11], 0.00457 µM	0.951
[11], 0.01372 µM	0.938
[11], 0.04115 µM	0.936
[11], 0.1235 µM	0.937
[11], 0.3704 µM	0.794
[11], 1.111 µM	0.46
[11], 3.333 µM	0.0101
[11], 10 µM	0.00167
[12], 0.00017 µM	1.1
[12], 0.00051 µM	1.136
[12], 0.00152 µM	1.08
[12], 0.00457 µM	1.085
[12], 0.01372 µM	1.08
[12], 0.04115 µM	1.08
[12], 0.1235 µM	1.1
[12], 0.3704 µM	1.116
[12], 1.111 µM	0.959
[12], 3.333 µM	0.539
[12], 10 µM	0.2186
